Consider 4 compounds from publication PMC7801405, “Structure, substrate specificity, and catalytic mechanism of human D-2-HGDH and insights into pathogenicity of disease-associated mutations” (Cell Discovery, 2021).

A word on the Kd: it is the concentration at which binding is half-saturated. Lower therefore signals higher affinity.

The target of test [1] is T1, D-2-hydroxyglutarate dehydrogenase (D-2-HGDH) (Homo sapiens, UniProt Q8N465).
T1 construct: gene D2HGDH
T1 sequence (Q8N465 51-521): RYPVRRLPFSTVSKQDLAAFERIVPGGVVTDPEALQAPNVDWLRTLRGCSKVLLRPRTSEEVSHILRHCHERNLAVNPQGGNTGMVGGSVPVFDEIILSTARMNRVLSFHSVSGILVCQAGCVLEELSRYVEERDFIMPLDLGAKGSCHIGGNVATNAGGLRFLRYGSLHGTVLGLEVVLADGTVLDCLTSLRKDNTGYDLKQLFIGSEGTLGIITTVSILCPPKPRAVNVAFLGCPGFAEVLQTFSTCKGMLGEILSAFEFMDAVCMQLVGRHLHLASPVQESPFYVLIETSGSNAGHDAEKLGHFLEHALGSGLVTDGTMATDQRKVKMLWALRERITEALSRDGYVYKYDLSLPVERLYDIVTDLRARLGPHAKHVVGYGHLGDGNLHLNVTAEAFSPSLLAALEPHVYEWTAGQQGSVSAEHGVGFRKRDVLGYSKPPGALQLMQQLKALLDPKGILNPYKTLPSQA
Briefly: crystal structure ([…] Å), SPR, enzyme kinetics. The class given is binding.

In test [2] the target is T1, D-2-hydroxyglutarate dehydrogenase (D-2-HGDH). Briefly: crystal structure ([…] Å), SPR, enzyme kinetics. Type of test: binding. The source holds these as a separate data set.
For test [3] the target is unchanged. Briefly: crystal structure ([…] Å), SPR, enzyme kinetics. The class given is binding. This is another data set of the same source.
Test [4] has the same target. Briefly: crystal structure ([…] Å); SPR with DTT-treated protein (reduced FAD); no measurable binding to the untreated protein.

As for `O=C(O)CC[C@@H](O)C(=O)O` [D-2-HG, D-2-hydroxyglutarate], the equilibrium dissociation constant (Kd) in test [1] turned out to be 149 µM.

For `C[C@@H](O)C(=O)O` [D-LAC, D-lactate], in test [2], binding was characterised by a dissociation constant (Kd) of 1620 µM.

Consider `O=C(O)C[C@@H](O)C(=O)O` [D-MAL, D-malate], for which the Kd in test [3] is 799 µM.

In turn, `O=C(O)CCC(=O)C(=O)O` [2-OG, 2-oxoglutarate] returned a Kd in test [4] of 7000 µM. In other words, the millimolar range.
